For this experiment, the system named is human adipocytes. Kind of experiment: Lipolytic activity: glycerol released from isolated adipocytes. The conditions noted are these: 90 minutes at 37° C., reference value=0. Type of experiment: cell-based. On the procedure: Method: The adipocytes were isolated from human subcutaneous tissue by the standard Rodbell method (J. of Biolog. Chem.; 1964, 239, 375-380). The extract of Examples 1 to 3 each with two extracts (batches A and B) and the comparison substances were dissolved in a Hanks reference medium with a particular salt concentration (Cell and Tissue Culture, Ed: J. Paul, Churchill and Livingstone, 1975, page 484) and then contacted with the isolated adipocytes for 90 minutes at 37° C. Two to six adipocyte preparations were investigated. The percentage increase in glycerol released was spectrophotometrically determined in the supernatant of the medium by the Carpéné method (J. de Pharmacologie; 1981; 12;219-224).

With `CC(C)NCC(O)c1ccc(O)c(O)c1` (centres unmarked) [Isoprenalin], for the setting “0.1 μM”, the “% Increase in glycerol released” value was found to be 129%.
Regarding `Cn1c(=O)c2[nH]cnc2n(C)c1=O` [Theophylline], where the note is “1.0 mM”, the “% Increase in glycerol released” value is on record as 187%.
